The target in one data set is T1, Aβ1-42 aggregates (Homo sapiens, UniProt P05067).
T1 construct: Aβ1-42 aggregates (Peptide Institute, Inc, Osaka) were dissolved in 0.1 mol/L phosphate-buffered saline; purchased Peptide Institute, Inc., Osaka
Nature of the data set: Binding evaluation using Aβ peptide aggregation in solution (Example 13). The following applies: for Ki: inhibition of [^125I]IMPY binding to Aβ1-42 aggregates, value following ± shows SE, read-out: Kl. Here is the method:
Aβ1-42 peptide (Peptide Institute, Inc., Osaka) was gently dissolved at a concentration of 0.25 mg/mL in a PBS solution (pH 7.4), which was then incubated at 37° C. for 42 hours to prepare an Aβ1-42 aggregate PBS solution.
Thereafter, the resultant was filtered through Whatman (R) GF/B filter using a Brandell M-24 cell harvester, and the radioactivity of the filter was measured using a γ counter (Wallac 1470 Wizard, from Perkin-Elmer).
The half inhibition concentration (IC50) value was determined from a replacement straight line using GraphPad Prism 5.0, and the inhibition constant (Ki) was calculated using the Cheng-Prusoff equation: the above-described Expression (1).

Data set [1] in a line: In vivo radioactivity distribution experiment (Example 8). The note with it: ddY mice, tail vein, SD in parenthesis. Here is the method:
Through the tail vein of ddY mice (male, 5 week-old) was injected each of a 10 volume % ethanol-containing saline solution of [^18F]E3 (45.4 kBq, 100 μL), a 10 volume % ethanol-containing saline solution of [^18F]D3 (38.2 kBq, 100 μL), a 10 volume % ethanol-containing saline solution of [^18F]E1 (45.1 kBq, 100 μL), and a 10 volume % ethanol-containing saline solution of [^18F]E2 (40.6 kBq, 100 μL). Five mice were used for each group and sacrificed 2, 10, 30, and 60 minutes after administration to remove major organs. The blood and organs were weighed and further measured for radioactivity using a γ counter. The amount of radioactivity per unit mass was measured in each organ to evaluate radioactivity distribution.

The test system of a further data set is amyloid plaques. Description: Autoradiography using postmortem brain section of patient with Alzheimer's disease (Example 7). The data set is classed as binding, human (Alzheimer's disease patient). The following applies: brain section (temporal lobe) of Alzheimer's disease patient; 0.37 MBq/100 μL, 1 hour. On the procedure:
A postmortem autopsy brain section (temporal lobe) of a patient with Alzheimer's disease was incubated together with each of [^18F]E3, [^18F]D3, [^18F]E1, and [^18F]E2 (0.37 MBq/100 μL each) at room temperature for 1 hour. The resultant was washed with a 50 volume % ethanol aqueous solution (2 minutes×2) and water (2 minutes×2), and after drying, the section was contacted with BAS imaging plate (from Fujifilm Corporation) for 1.5 hours. The image of autoradiography was obtained using BAS5000 scanner system (from Fujifilm Corporation).
A section adjacent to the brain section used was immunostained in the following manner.
First, a paraffin-embedded brain section of the Alzheimer's disease patient (temporal lobe, 6 μm in thickness) was incubated with xylene (15 minutes×2), ethanol (1 minute×2), a 90 volume % ethanol aqueous solution (1 minute×2), and a 70 volume % ethanol aqueous solution (1 minute×1) in that order for complete deparaffinization, and then washed in water (2.5 minutes×2). Thereafter, the section was subjected to autoclave treatment for 15 minutes in 0.01 mol/L citrate buffer solution (pH 6.0). The resultant was incubated in PBS-Tween20 (5 minutes×2), and a mouse anti-Aβ1-42 primary monoclonal antibody (from Wako Pure Chemical Industries Ltd.) was then added thereto, which was then incubated at room temperature overnight. The resultant was incubated in PBS-Tween20 (2 minutes×3), and a biotin-goat anti-mouse IgG (from Funakoshi Co., Ltd.) was then added thereto, which was then incubated at room temperature for 1 hour. The resultant was incubated in PBS-Tween20 (5 minutes×3), and a streptavidin-peroxidase complex (from Funakoshi Co., Ltd.) was added thereto, which was then incubated at room temperature for 30 minutes. In addition, the resultant was incubated in PBS-Tween20 (2 minutes×3); 3,3′-diaminobenzidine was added thereto, which was then incubated at room temperature for 30 minutes; and after washing with water, the section was observed under a microscope to provide an immunostained image (FIG. 10).

T1 sequence (P05067 672-713 limits assumed): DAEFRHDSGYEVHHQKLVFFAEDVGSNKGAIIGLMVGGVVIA

In the case of `Nc1ccc(-c2cnc3cc(OCCF)ccc3n2)cc1` [Compound D1, 4-(6-(2-Fluoroethoxy)quinoxalin-2-yl)aniline], the Ki on Aβ1-42 aggregates stood at 242 ± 29 nM.
In the case of `CNc1ccc(-c2cnc3cc(OCCF)ccc3n2)cc1` [Compound D2, 4-(6-(2-Fluoroethoxy)quinoxalin-2-yl)-N-methylaniline], the “binding affinity relative to D1” value on Aβ1-42 aggregates (Ki of D2 compared with D1) was no less than 10 times. In addition, the Ki at Aβ1-42 aggregates came out at 15.7 ± 1.28 nM.
As to `CNc1ccc(-c2cnc3ccc(OCC[18F])cc3n2)cc1` [[^18F]E2, 4-(7-(2-[^18F]Fluoroethoxy)quinoxalin-2-yl)-N-methylaniline], in data set [1] (2 min. after), the “Radioactivity Amount, Blood” value was 3.37 (0.46) % injected dose/g; the “Radioactivity Amount, Bone” value was 1.86 (0.53) % injected dose/g; the “Radioactivity Amount, Brain” value is listed as 5.96 (0.48) % injected dose/g; the “Radioactivity Amount, Heart” value was 7.42 (0.53) % injected dose/g. Besides, in data set [1] (2 min. after), the “Radioactivity Amount, Intestine” value is 3.46 (0.75) % injected dose/g; the “Radioactivity Amount, Kidney” value is 11.8 (2.51) % injected dose/g; the “Radioactivity Amount, Liver” value is recorded as 6.84 (1.50) % injected dose/g; the “Radioactivity Amount, Lung” value is 6.71 (0.24) % injected dose/g. Further, in data set [1] (2 min. after), the “Radioactivity Amount, Pancreas” value is 5.42 (0.13) % injected dose/g; the “Radioactivity Amount, Spleen” value is recorded as 2.71 (0.44) % injected dose/g; the “Radioactivity Amount, Stomach*” value is recorded as 1.13 (0.18) % injected dose per organ. Further, in data set [1] (10 min. after), the “Radioactivity Amount, Blood” value is given as 3.83 (1.24) % injected dose/g; the “Radioactivity Amount, Bone” value was 1.91 (0.54) % injected dose/g; the “Radioactivity Amount, Brain” value was 3.77 (0.40) % injected dose/g; the “Radioactivity Amount, Heart” value is recorded as 4.41 (0.17) % injected dose/g. Moreover, in data set [1] (10 min. after), the “Radioactivity Amount, Intestine” value is 12.5 (2.77) % injected dose/g; the “Radioactivity Amount, Kidney” value is on record as 7.55 (0.36) % injected dose/g; the “Radioactivity Amount, Liver” value is 11.7 (0.58) % injected dose/g; the “Radioactivity Amount, Lung” value is recorded as 4.98 (0.56) % injected dose/g. In data set [1] (10 min. after), the “Radioactivity Amount, Pancreas” value was 4.91 (0.95) % injected dose/g; the “Radioactivity Amount, Spleen” value was 4.53 (0.62) % injected dose/g; the “Radioactivity Amount, Stomach*” value is 2.11 (0.55) % injected dose per organ. In addition, in data set [1] (30 min. after), the “Radioactivity Amount, Blood” value is 3.10 (0.34) % injected dose/g; the “Radioactivity Amount, Bone” value is recorded as 2.07 (3.97) % injected dose/g; the “Radioactivity Amount, Brain” value is on record as 2.18 (0.22) % injected dose/g; the “Radioactivity Amount, Heart” value is 8.53 (12.0) % injected dose/g. Further, in data set [1] (30 min. after), the “Radioactivity Amount, Intestine” value is recorded as 20.3 (2.55) % injected dose/g; the “Radioactivity Amount, Kidney” value is 3.92 (0.45) % injected dose/g; the “Radioactivity Amount, Liver” value is reported as 7.95 (1.32) % injected dose/g; the “Radioactivity Amount, Lung” value is listed as 3.34 (0.55) % injected dose/g. In data set [1] (30 min. after), the “Radioactivity Amount, Pancreas” value is 2.60 (0.25) % injected dose/g; the “Radioactivity Amount, Spleen” value was 3.33 (0.66) % injected dose/g; the “Radioactivity Amount, Stomach*” value was 1.56 (0.34) % injected dose per organ. In data set [1] (60 min. after), the “Radioactivity Amount, Blood” value is recorded as 3.40 (0.32) % injected dose/g; the “Radioactivity Amount, Bone” value was 2.36 (1.16) % injected dose/g; the “Radioactivity Amount, Brain” value is given as 1.91 (0.15) % injected dose/g; the “Radioactivity Amount, Heart” value is reported as 3.92 (0.64) % injected dose/g. Also, in data set [1] (60 min. after), the “Radioactivity Amount, Intestine” value is recorded as 22.1 (2.95) % injected dose/g; the “Radioactivity Amount, Kidney” value is given as 3.12 (0.41) % injected dose/g; the “Radioactivity Amount, Liver” value was 6.95 (0.68) % injected dose/g; the “Radioactivity Amount, Lung” value is given as 4.06 (0.99) % injected dose/g. Besides, in data set [1] (60 min. after), the “Radioactivity Amount, Pancreas” value was 2.73 (0.31) % injected dose/g; the “Radioactivity Amount, Spleen” value is recorded as 3.17 (0.62) % injected dose/g; the “Radioactivity Amount, Stomach*” value was 2.73 (2.44) % injected dose per organ. Further, the “visualization of gray matter / amyloid plaques by autoradiography” value in the data set on amyloid plaques is “did not visualize the gray matter but rather strongly visualized the white matter”.
